Results from ChEMBL document CHEMBL6121052, “Design of ROS-Triggered Sesquiterpene Lactone SC Prodrugs as TrxR1 Covalent Inhibitors for the Treatment of Non-Small Cell Lung Cancer” (J Med Chem, 2025).

Key:
A549 = test: Cytotoxicity against human A549 cells assessed as cell viability incubated for 48 hrs by MTT assay; type: functional, cell-based; details: A549, 48 h
NCI-H460 = test: Cytotoxicity against human NCI-H460 cells assessed as cell viability incubated for 48 hrs by MTT assay; type: functional, cell-based; details: NCI-H460, 48 h

Row | Compound | IC50 (A549) [µM] | IC50 (NCI-H460) [µM]
1 | C/C1=C\[C@@H](O)[C@H]2[C@H](CC3=C[C@H](C1)OC3=O)OC(=O)[C@@H]2CSCC(C)C | > 25 | > 25
2 | C/C1=C\[C@@H](OC(=O)/C=C/c2ccccc2)[C@H]2[C@H](CC3=C[C@H](C1)OC3=O)OC(=O)[C@@H]2CSc1cccc(Br)c1 | 8.61 | > 25
3 | C/C1=C\[C@@H](OC(=O)/C=C/c2ccccc2)[C@H]2[C@H](CC3=C[C@H](C1)OC3=O)OC(=O)[C@@H]2CSCCCCCCCCCCSC[C@H]1C(=O)O[C@H]2CC3=C[C@H](C/C(C)=C/[C@@H](OC(=O)/C=C/c4ccccc4)[C@@H]21)OC3=O | > 25 | > 25
4 | C/C1=C\[C@@H](OC(=O)/C=C/c2ccccc2)[C@H]2[C@H](CC3=C[C@H](C1)OC3=O)OC(=O)[C@@H]2CSc1ccc(Br)cc1 | 11.8 | > 25
5 | C/C1=C\[C@@H](OC(=O)/C=C/c2ccccc2)[C@H]2[C@H](CC3=C[C@H](C1)OC3=O)OC(=O)[C@@H]2CSCc1ccc(Cl)cc1 | > 25 | > 25
6 | C/C1=C\[C@@H](OC(=O)C2CC2)[C@H]2[C@H](CC3=C[C@H](C1)OC3=O)OC(=O)[C@@H]2CSC(=S)N1CCOCC1 | 0.83 | > 25
7 | C/C1=C\[C@@H](OC(=O)C2CC2)[C@H]2[C@H](CC3=C[C@H](C1)OC3=O)OC(=O)[C@@H]2CSC(=S)NCc1cccnc1 | 1.41 | 15.3
8 | C/C1=C\[C@@H](OC(=O)c2ccccc2)[C@H]2[C@H](CC3=C[C@H](C1)OC3=O)OC(=O)[C@@H]2CSc1ccc([N+](=O)[O-])cc1 | 2.59 | > 25
9 | C/C1=C\[C@@H](OC(=O)c2ccccc2)[C@H]2[C@H](CC3=C[C@H](C1)OC3=O)OC(=O)[C@@H]2CSc1ccc(Br)cc1 | 8.85 | > 25
10 | C/C1=C\[C@@H](OC(=O)C2CC2)[C@H]2[C@H](CC3=C[C@H](C1)OC3=O)OC(=O)[C@@H]2CSCc1ccc(Cl)cc1 | > 25 | > 25
11 | C/C1=C\[C@@H](OC(=O)c2ccccc2)[C@H]2[C@H](CC3=C[C@H](C1)OC3=O)OC(=O)[C@@H]2CSc1cccc(F)c1 | 6.17 | > 25
12 | C/C1=C\[C@@H](OC(=O)C2CC2)[C@H]2[C@H](CC3=C[C@H](C1)OC3=O)OC(=O)[C@@H]2CSc1ccc(SC[C@H]2C(=O)O[C@H]3CC4=C[C@H](C/C(C)=C/[C@@H](OC(=O)C5CC5)[C@@H]32)OC4=O)cc1 | 1.15 | > 25
13 | C/C1=C\[C@@H](OC(=O)/C=C/c2ccccc2)[C@H]2[C@H](CC3=C[C@H](C1)OC3=O)OC(=O)[C@@H]2CSc1ccc(F)cc1 | 11.3 | > 25
14 | C/C1=C\[C@@H](OC(=O)C2CC2)[C@H]2[C@H](CC3=C[C@H](C1)OC3=O)OC(=O)[C@@H]2CSC(=S)NC1CCCC1 | 2.63 | > 25
15 | C/C1=C\[C@@H](OC(=O)/C=C/c2ccccc2)[C@H]2[C@H](CC3=C[C@H](C1)OC3=O)OC(=O)[C@@H]2CSc1cccc(F)c1 | 15.6 | > 25
16 | CCCCCSC[C@H]1C(=O)O[C@H]2CC3=C[C@H](C/C(C)=C/[C@@H](OC(=O)c4ccccc4)[C@@H]21)OC3=O | > 25 | > 25
17 | C/C1=C\[C@@H](OC(=O)C2CC2)[C@H]2[C@H](CC3=C[C@H](C1)OC3=O)OC(=O)[C@@H]2CSc1cccc(Br)c1 | 5.77 | > 25
18 | C/C1=C\[C@@H](OC(=O)C2CC2)[C@H]2[C@H](CC3=C[C@H](C1)OC3=O)OC(=O)[C@@H]2CSCCOCCOCCSC[C@H]1C(=O)O[C@H]2CC3=C[C@H](C/C(C)=C/[C@@H](OC(=O)C4CC4)[C@@H]21)OC3=O | 13.2 | > 25
19 | C/C1=C\[C@@H](OC(=O)C2CC2)[C@H]2[C@H](CC3=C[C@H](C1)OC3=O)OC(=O)[C@@H]2CSc1ccc(Cl)cc1 | 6.03 | > 25
20 | C/C1=C\[C@@H](OC(=O)/C=C/c2ccccc2)[C@H]2[C@H](CC3=C[C@H](C1)OC3=O)OC(=O)[C@@H]2CSC1CCCCC1 | > 25 | > 25
21 | C/C1=C\[C@@H](OC(=O)C2CC2)[C@H]2[C@H](CC3=C[C@H](C1)OC3=O)OC(=O)[C@@H]2CSCC(C)C | > 25 | > 25
22 | C/C1=C\[C@@H](OC(=O)c2ccccc2)[C@H]2[C@H](CC3=C[C@H](C1)OC3=O)OC(=O)[C@@H]2CSc1ccc(F)cc1 | 7.18 | > 25
23 | C/C1=C\[C@@H](OC(=O)/C=C/c2ccccc2)[C@H]2[C@H](CC3=C[C@H](C1)OC3=O)OC(=O)[C@@H]2CSCC(C)C | > 25 | > 25

Row | Compound | IC50 (A549) [µM] | IC50 (NCI-H460) [µM]
24 | COc1ccc(SC[C@H]2C(=O)O[C@H]3CC4=C[C@H](C/C(C)=C/[C@@H](OC(=O)c5ccccc5)[C@@H]32)OC4=O)cc1 | 9.67 | > 25
25 | C/C1=C\[C@@H](OC(=O)C2CC2)[C@H]2[C@H](CC3=C[C@H](C1)OC3=O)OC(=O)[C@@H]2CSc1nc2ccccc2s1 | 17.2 | > 25
26 | C/C1=C\[C@@H](O)[C@H]2[C@H](CC3=C[C@H](C1)OC3=O)OC(=O)[C@@H]2CSc1nc2ccccc2s1 | > 25 | > 25
27 | COc1ccc(SC[C@H]2C(=O)O[C@H]3CC4=C[C@H](C/C(C)=C/[C@@H](OC(=O)/C=C/c5ccccc5)[C@@H]32)OC4=O)cc1 | 14 | > 25
28 | C/C1=C\[C@@H](OC(=O)c2ccccc2)[C@H]2[C@H](CC3=C[C@H](C1)OC3=O)OC(=O)[C@@H]2CSc1ccc(SC[C@H]2C(=O)O[C@H]3CC4=C[C@H](C/C(C)=C/[C@@H](OC(=O)c5ccccc5)[C@@H]32)OC4=O)cc1 | > 25 | > 25
29 | C/C1=C\[C@@H](OC(=O)c2ccccc2)[C@H]2[C@H](CC3=C[C@H](C1)OC3=O)OC(=O)[C@@H]2CSc1nc2ccccc2s1 | > 25 | > 25
30 | CCCCCSC[C@H]1C(=O)O[C@H]2CC3=C[C@H](C/C(C)=C/[C@@H](OC(=O)C4CC4)[C@@H]21)OC3=O | > 25 | > 25
31 | CCCCCSC[C@H]1C(=O)O[C@H]2CC3=C[C@H](C/C(C)=C/[C@@H](O)[C@@H]21)OC3=O | > 25 | > 25
32 | C/C1=C\[C@@H](OC(=O)/C=C/c2ccccc2)[C@H]2[C@H](CC3=C[C@H](C1)OC3=O)OC(=O)[C@@H]2CSCCCCCCSC[C@H]1C(=O)O[C@H]2CC3=C[C@H](C/C(C)=C/[C@@H](OC(=O)/C=C/c4ccccc4)[C@@H]21)OC3=O | > 25 | > 25
33 | C/C1=C\[C@@H](OC(=O)c2ccccc2)[C@H]2[C@H](CC3=C[C@H](C1)OC3=O)OC(=O)[C@@H]2CSCc1ccc(Cl)cc1 | > 25 | > 25
34 | C/C1=C\[C@@H](OC(=O)c2ccccc2)[C@H]2[C@H](CC3=C[C@H](C1)OC3=O)OC(=O)[C@@H]2CSc1ccc(Cl)cc1 | 4.14 | 20.6
35 | C/C1=C\[C@@H](OC(=O)C2CC2)[C@H]2[C@H](CC3=C[C@H](C1)OC3=O)OC(=O)[C@@H]2CSC(=S)NC(C)C | 1.94 | > 25
36 | C/C1=C\[C@@H](OC(=O)c2ccccc2)[C@H]2[C@H](CC3=C[C@H](C1)OC3=O)OC(=O)[C@@H]2CSC1CCCCC1 | > 25 | > 25
37 | C/C1=C\[C@@H](OC(=O)C2CC2)[C@H]2[C@H](CC3=C[C@H](C1)OC3=O)OC(=O)[C@@H]2CSc1ccc([N+](=O)[O-])cc1 | 5.12 | > 25
38 | C/C1=C\[C@@H](O)[C@H]2[C@H](CC3=C[C@H](C1)OC3=O)OC(=O)[C@@H]2CSCCCCCCCCSC[C@H]1C(=O)O[C@H]2CC3=C[C@H](C/C(C)=C/[C@@H](O)[C@@H]21)OC3=O | > 25 | > 25
39 | C/C1=C\[C@@H](OC(=O)/C=C/c2ccccc2)[C@H]2[C@H](CC3=C[C@H](C1)OC3=O)OC(=O)[C@@H]2CSCCCCCCCCSC[C@H]1C(=O)O[C@H]2CC3=C[C@H](C/C(C)=C/[C@@H](OC(=O)/C=C/c4ccccc4)[C@@H]21)OC3=O | > 25 | > 25
40 | C/C1=C\[C@@H](O)[C@H]2[C@H](CC3=C[C@H](C1)OC3=O)OC(=O)[C@@H]2CSc1cccc(Br)c1 | > 25 | > 25
41 | C/C1=C\[C@@H](OC(=O)c2ccccc2)[C@H]2[C@H](CC3=C[C@H](C1)OC3=O)OC(=O)[C@@H]2CSc1ccc(C(F)(F)F)cc1 | 3.74 | 24.4
42 | C/C1=C\[C@@H](O)[C@H]2[C@H](CC3=C[C@H](C1)OC3=O)OC(=O)[C@@H]2CSc1ccc(SC[C@H]2C(=O)O[C@H]3CC4=C[C@H](C/C(C)=C/[C@@H](O)[C@@H]32)OC4=O)cc1 | > 25 | > 25
43 | C/C1=C\[C@@H](O)[C@H]2[C@H](CC3=C[C@H](C1)OC3=O)OC(=O)[C@@H]2CSCCCCCSC[C@H]1C(=O)O[C@H]2CC3=C[C@H](C/C(C)=C/[C@@H](O)[C@@H]21)OC3=O | > 25 | > 25
44 | C/C1=C\[C@@H](OC(=O)C2CC2)[C@H]2[C@H](CC3=C[C@H](C1)OC3=O)OC(=O)[C@@H]2CSCCCCCCCCSC[C@H]1C(=O)O[C@H]2CC3=C[C@H](C/C(C)=C/[C@@H](OC(=O)C4CC4)[C@@H]21)OC3=O | > 25 | > 25
45 | C/C1=C\[C@@H](O)[C@H]2[C@H](CC3=C[C@H](C1)OC3=O)OC(=O)[C@@H]2CSc1ccc(Cl)cc1 | > 25 | > 25
46 | C/C1=C\[C@@H](OC(=O)c2ccccc2)[C@H]2[C@H](CC3=C[C@H](C1)OC3=O)OC(=O)[C@@H]2CSCC(C)C | > 25 | > 25
